Results as given in patent publication US10537611B2, “Methods of treating lung cancer” (Five Prime Therapeutics, Inc., priority 2011, dated 2020).

Test: Serum phosphate in rats
Assay type: in vivo, rat
Conditions: 50 mg/kg/day oral gavage, at 24 hour or 1 week of daily dosing
Experimental: In the first experiment, Sprague Dawley rats (Charles River Labs; N=5/group) were dosed with vehicle, 10, 50 or 200 mg/kg/qwk of FGFR1-ECD.339-Fc for four weekly doses and plasma concentrations of FGFR1-ECD.339-Fc were determined throughout the study by an ELISA based detection method.
In the second experiment, Sprague Dawley rats (Charles River Labs; N=5/group) were administered the FGFR kinase inhibitor PD173074 (Chemdea, Ridgewood, N.J.; 50 mg/kg/day) or vehicle control by oral gavage for 7 days; or were administered FGFR1-ECD.339-Fc (200 mg/kg) or appropriate vehicle weekly by intravenous administration. Blood samples were collected at the time points indicated and serum phosphate was determined at 24 and 168 hours post-initiation of dosing (Idexx laboratories, Westbrook, Mass.).

plasma phosphate levels: significantly elevated
Structure (SMILES): CCN(CC)CCCCNc1ncc2cc(-c3cc(OC)cc(OC)c3)c(NC(=O)NC(C)(C)C)nc2n1 [PD173043]
